“Also recorded” adds a separate entry of the source. Where two headings read alike, the source gives them in different places.
Assays:
[1] = system: trypomastigote forms of T. cruzi; design: method as in PMID 31434040; conditions: read-out: IC50 against trypomastigotes; cited from earlier work
[2] = system: intracellular parasites in T. cruzi-infected microtissue; experiment: 3D-microtissue-based phenotypic screening (T. cruzi-infected Vero spheroids); assay type: cell-based, Trypanosoma cruzi; conditions: 72 h treatment
Description: Vero cells were seeded at a density of 2 × 10^5 cells/well in a 96-well U-bottom plate previously coated with agarose (1%). The 3D cultures, adapted from, were cultivated for 4 days in RPMI 1640 medium supplemented with 10% FBS and L-glutamine for complete 3D microtissue formation. The 3D culture model was used as a tool to evaluate the effectiveness of promising derivatives in eliminating intracellular parasites in the microtissue.
The 3D-microtissue-based phenotypic screening was performed with the promising pyrazole derivatives. […] At the end of the treatment, the 3D cultures supernatants were removed, and luciferin (300 μg/mL) was added to the spheroids. The luminescent signal was read on the Glomax-Multi Detection reader (Promega Corporation, Madison, WI, USA). Bz (100 µM) and DMSO (≤1%) were used as positive and negative control, respectively. The IC50 value was calculated by linear regression. At least three independent assays were performed in quadruplicate.

[3] = Cytotoxicity in vitro assay (ATP, CellTiter Glo, 72 h); assay type: cell-based; conditions: African green monkey, Vero cells
Description: Vero cells, obtained from the Rio de Janeiro Cell Bank (BCRJ code 0245), were cultured in RPMI-1640 supplemented with 10% fetal bovine serum (FBS) and 1 mM L-glutamine, as previously described. Vero cells were used for drug screening assays and to obtain trypomastigote forms of T. cruzi.
Vero cells were used as a cellular model to analyze the toxic effect of pyrazole derivatives, series 1(a–l), 2(a–l), 3(a–n), 4(a–c), and 5(a–c), and Benznidazole (Bz) on mammalian cells. Briefly, the cells, plated on 96-well white opaque microplate (1.5 × 10^4 cells/well), were treated for 72 h at 37 °C with a wide range concentration (500–1.95 µM) of the pyrazole derivatives. The cell viability was determined by measuring ATP levels using the CellTiter Glo Kit (Promega Corporation, Madison, WI, EUA) followed by reading the luminescent signal on the Glomax-Multi Detection plate reader (Promega Corporation, Madison, WI, EUA)). All treatments and controls were performed at a low concentration of DMSO (≤1%). The 50% cytotoxic concentration values (CC50; the concentration of the compound that reduces 50% of the cell viability) were estimated by linear regression analysis. Three independent assays were performed in duplicate.

[4] = system: trypomastigote forms of T. cruzi; experiment: Phenotypic screening against T. cruzi trypomastigotes (Dm28c-Luc, luciferase viability, 24 h); assay type: cell-based, Trypanosoma cruzi
Description: T. cruzi Dm28c clone genetically modified to express luciferase, kindly provided by Dr. Cristina Henriques from Oswaldo Cruz Institute–Fiocruz, was used in the drug assays. Trypomastigotes were harvested from T. cruzi-infected Vero cultures supernatants at 4th days post-infection (dpi) and used in the phenotypic screening assay. For intracellular amastigotes assays, Vero cells (2D and 3D cultures) were infected at a ratio of 10:1 parasites/host cells.
The phenotypic compound screening was performed using transgenic T. cruzi parasites expressing the firefly luciferase (Dm28c-Luc). Trypomastigotes (1 × 10^6 parasites/well) were treated for 24 h at 37 °C with the pyrazole derivatives and Bz (0.04–100 μM), followed by incubation with luciferin substrate (300 µg/mL) to determine parasite viability through luciferase activity. The concentration that reduces the number of viable parasites by 50% (IC50) or 90% (IC90) was calculated by linear regression. The luminescent signal was read on a Glomax-Multi Detection plate reader (Promega Corporation, Madison, WI, EUA)). At least three independent assays were performed in duplicate.

[5] = system: T. cruzi cysteine protease; experiment: Cysteine protease activity of trypomastigote total protein extracts (Z-FR-AMC); assay type: biochemical, Trypanosoma cruzi; conditions: 300 µM, Z-FR-AMC 60 µM, pH 5.0, 37 °C
Description: Total protein extract from trypomastigotes (Dm28c-Luc; 10^8 parasites/mL) were extracted with lysis buffer. Cysteine protease activity of extracts (5 μg) was measured in acetate buffer using fluorogenic peptide substrate (60 μM of 7-Amino-4-Methylcoumarin hydrochloride, CBZ-L-Phenylalanyl-L-Arginine amide (Z-FR-AMC). Total protein extracts were incubated for 45 min at room temperature with the compounds and changes in relative fluorescence units monitored using a SpectraMaxM2e spectrophotometer (Molecular Devices, Sunnyvale, CA, USA) for 1 h with excitation at 370 nm and emission at 460 nm. The inhibition assays were performed by coincubation with different compounds (3g, 3j, and 3m) and concentrations (300–11.11 µM) and transepoxysuccinyl-L-leucylamido-(4-guanidino) butane (E-64). Additional control was carried out with DMSO (≤1%). Enzymatic activity was expressed in µmol/min/mg of protein and the residual activity in percentage.
Figure 6 Inhibition of T. cruzi cysteine protease activity. Total protein extracts of trypomastigotes (5 µg), was incubated at different concentrations (300–11.11 µM) of compounds E64 (black circle), 3g (black triangle), 3j (black square) and 3m (white circle) in enzyme activation buffer pH 5.0, at 37 °C. Enzyme activity was measured using a specific fluorogenic peptide substrate Z-FR-AMC (60 µM). Results are presented as percentage of inhibition of enzyme activity (%) and represent the mean and standard deviation (±) of three independent experiments.

[6] = system: T. cruzi (Dm28c-Luc) in Vero cells; experiment: Reversibility (washout) assay, parasite recrudescence in infected Vero cells; assay type: cell-based, Trypanosoma cruzi
Description: To address the question of whether the treatment with 3g, 3j, and 3m leads to parasite clearance, an intracellular T. cruzi washout assay was performed as a strategy for monitoring the parasite recrudescence. In this approach, cultures of infected Vero cells (Dm28c-Luc) were treated for 72 h at IC90 and 50 µM (2 to 5-fold de IC90) concentrations of the promising compounds 3g, 3j, and 3m and, after washing the cell monolayers, the cultures were kept for another 72 h without drug treatment. Both cell monolayers and their supernatants were evaluated for the presence of viable parasites after luciferin addition. All derivatives analyzed relapsed at the IC90 concentration (Figure 3). However, treatment with 3g, 3j, and 3m led to a significant reduction in the parasite load, reaching a decrease of 4.5-, 1.9-, and 8.7-fold, respectively, when compared to untreated infected Vero cells cultures (Figure 3). The emergence of trypomastigotes in the supernatant, at IC90 concentration, was observed three days after removal of drug pressure, but with a significant reduction in viable parasites compared to untreated cultures (Figure 3). Parasite recrudescence was not seen in 100 µM Bz treatment (Figure 3).
The washout assay, adapted from, was performed to evaluate the promising compounds efficacy. […] After successive washing, the cultures were maintained for an additional 72 h at 37 °C in RPMI 1640 medium supplemented with 10% SFB in the absence of the compound. Luciferin (300 µg/mL) was added separately to the culture supernatant, previously removed, and the cell monolayer. The luminescent signal was read on the Glomax-Multi Detection reader (Promega Corporation, Madison, WI, USA). Bz (100 µM) and DMSO (≤1%) were used as positive and negative reaction controls, respectively.

[7] = system: intracellular amastigotes of T. cruzi; experiment: Activity against intracellular amastigotes in infected Vero cells (Dm28c-Luc, 72 h); assay type: cell-based, Trypanosoma cruzi
How it was run: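 Vero cells (2D and 3D cultures) infected with luciferase-expressing Dm28c trypomastigotes at 10:1 parasites/host cell, then treated 72 h at 37 °C with 0.04–100 µM compound, DMSO <1% v/v. Viability read by luminescence after 300 µg/mL luciferin; IC50/IC90 by linear regression, at least three independent assays in duplicate.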

[8] = system: T. cruzi-infected cardiac microtissue; design: method as in PMID 32564978; conditions: 5 nM; cited from earlier work

## 5-amino-1-aryl-4-(4,5-dihydro-1H-imidazol-2-yl)-1H-pyrazole [hit compound]
[1]
  IC50: 9.5 ± 1.2 µM

## Cc1ccc(-n2cc(C3=NCCN3)cn2)cc1Cl [Compound 3m, 1-(3-chloro-4-methylphenyl)-4-(4,5-dihydro-1H-imidazol-2-yl)-1H-pyrazole]
[2]
  reduction of microtissue infection: 93%
[2]; Bz 100 µM
  viability of intracellular parasites in microtissue, luminescence intensity (ALU): 12,683 ± 3976 ALU
[3]
  CC50 at 72 h: 161 ± 16.1 µM
[4]; CC50 of Vero cells/IC50 of trypomastigote
  Trypomastigotes SI: 4.64
[4]; Trypanosoma cruzi, Dm28c-Luc, 24 h, read-out: Trypanocidal Activity Trypomastigotes IC50
  IC50: 34.5 ± 8.32 µM
[4]; Trypanosoma cruzi, Dm28c-Luc, 24 h, read-out: Trypanocidal Activity Trypomastigotes IC90
  IC90: > 100 µM
[5]
  maximum inhibition of cysteine protease enzymatic activity: 26%
[6]; 50 µM (2 times IC90), 72 h after washout
  parasite recrudescence / efficacy: without parasitism recrudescence; also recorded: same activity profile as 100 µM Bz
[6]; 72 h treatment at IC90, washout, 72 h without drug
  decrease of parasite load compared to untreated infected Vero cell cultures: 8.7 fold
[7]; Trypanosoma cruzi, Vero, negative log of the IC50 value in molar, read-out: Intracellular Amastigotes pIC50 (converted)
  IC50: 3.55 µM
[7]; Trypanosoma cruzi, Vero cells infected with Dm28c-Luc, 72 h, read-out: Trypanocidal Activity Intracellular Amastigotes IC90
  IC90: 21.4 ± 1.25 µM
[7]; compared to hit compound
  fold increase of activity against intracellular amastigotes versus hit compound: 3.8 fold
[7]; intracellular amastigotes
  trypanocidal activity fold higher than 3e: 21 fold

## CC[C@@H]([C@H](C)O)n1ncn(-c2ccc(N3CCN(c4ccc(OC[C@@H]5CO[C@@](Cn6cncn6)(c6ccc(F)cc6F)C5)cc4)CC3)cc2)c1=O [Posaconazole, posaconazole]
[8]
  reduction of parasite load: 50%
